# Source: patent publication US20110173718A1, “HERBICIDE TOLERANT PLANTS” (SYNGENTA CROP PROTECTION, INC., priority 2008, published 2011)
# Tests used:
# [1] = biological target: T1, Arabidopsis HST (Arabidopsis thaliana, UniProt Q1ACB3); assay: HST total extraction (non TLC) assay, recombinant Arabidopsis HST from insect cells; type: biochemical
# T1 construct: GST (factor Xa cleavage site) (N); made in house; host or cells: Sf9 insect cells (baculovirus, pAcG3X), membrane fraction
# T1 sequence (Q1ACB3 70-386): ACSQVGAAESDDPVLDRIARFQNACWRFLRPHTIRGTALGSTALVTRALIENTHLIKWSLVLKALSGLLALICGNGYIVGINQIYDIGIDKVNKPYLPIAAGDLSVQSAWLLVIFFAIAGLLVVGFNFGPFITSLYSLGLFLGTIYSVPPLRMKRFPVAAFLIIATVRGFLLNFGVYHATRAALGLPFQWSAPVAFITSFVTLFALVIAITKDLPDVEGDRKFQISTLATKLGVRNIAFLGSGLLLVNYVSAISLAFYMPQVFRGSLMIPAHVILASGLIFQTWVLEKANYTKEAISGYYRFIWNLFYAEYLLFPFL
# [2] = tested on: weeds; assay: Glasshouse weed control, HST inhibitors alone and with A22, pre-emergence; type: in vivo; details: 14 DAT
# Protocol: (§1) In a further test, the results of which are depicted in tables 18 and 19, weed seeds are planted out in trays containing 50% peat/50% John Innes no. 3 soil and grown in the glass house at 24-27 C day; 18-21 C night and approximately a 15 h photoperiod. Humidity is ˜65% and light levels at bench level are up to 2 mmol/m^2. Again all spray chemicals are dissolved in 0.2% X77 surfactant and sprayed from a boom on a track sprayer moving at 2 mph with the nozzle set about 2 inches above the plant tops. The spray volume is […]. Sprays are carried out both pre-emergence and post-emergence over small plants at about 7-12 d post-emergence. Plants are assessed at 14 DAT with herbicidal damage scored on a scale from 0 to 100%. The HPPD inhibiting herbicide is compound A22 (4-hydroxy-3-[[2-(2-methoxyethoxy)methyl]-6-(trifluoromethyl)-3-pyridinylicarbonyl]-bicyclo[3.2.1]oct-3-en-2-one) which is sprayed at 2 g/ha both alone and in mixture with various HST herbicides. Results and spray rates are depicted in Tables 18 and 19. Again the Colby formula has been used to calculate synergy scores observed following treatment with the mixture based on the results obtained with the single components alone. Positive synergy is observed between the HPPD herbicide and a wide variety of HST inhibitor herbicides applied both pre and postemergence across a variety of weeds.
# [3] = tested on: weeds; assay: Glasshouse weed control, HST inhibitors alone and with A22, post-emergence; type: in vivo; details: 14 DAT, single replicate
# Protocol: as §1
structure (smiles),measurement,setting,value
C#Cn1c(=O)c(-c2c(F)ccc(F)c2Cl)c(O)c2nccnc21 [Compound 2.18],Estimated IC50 (ppm),[1],6 ppm
same,"BRAPL Obs, % control score",[2]; HST inhibitor rate 15.625 g/ha,0%
same,"BRAPL Obs, % control score",[2]; HST inhibitor rate 62.5 g/ha,10%
same,"BRAPL Obs, % control score",[2]; HST inhibitor rate 250 g/ha,40%
same,"DIGSA Obs, % control score",[2]; HST inhibitor rate 15.625 g/ha,0%
same,"DIGSA Obs, % control score",[2]; HST inhibitor rate 62.5 g/ha,0%
same,"DIGSA Obs, % control score",[2]; HST inhibitor rate 250 g/ha,0%
same,"ECHCG Obs, % control score",[2]; HST inhibitor rate 15.625 g/ha,0%
same,"ECHCG Obs, % control score",[2]; HST inhibitor rate 62.5 g/ha,20%
same,"ECHCG Obs, % control score",[2]; HST inhibitor rate 250 g/ha,20%
same,"PANMI Obs, % control score",[2]; HST inhibitor rate 15.625 g/ha,0%
same,"PANMI Obs, % control score",[2]; HST inhibitor rate 62.5 g/ha,0%
same,"PANMI Obs, % control score",[2]; HST inhibitor rate 250 g/ha,50%
same,"SETFA Obs, % control score",[2]; HST inhibitor rate 15.625 g/ha,0%
same,"SETFA Obs, % control score",[2]; HST inhibitor rate 62.5 g/ha,20%
same,"SETFA Obs, % control score",[2]; HST inhibitor rate 250 g/ha,25%
same,"SIDSP Obs, % control score",[2]; HST inhibitor rate 15.625 g/ha,0%
same,"SIDSP Obs, % control score",[2]; HST inhibitor rate 62.5 g/ha,30%
same,"SIDSP Obs, % control score",[2]; HST inhibitor rate 250 g/ha,30%
same,"% control score, Obs","[3]; BRAPL, 15.625 g/ha alone",5%
same,"% control score, Obs","[3]; BRAPL, 62.5 g/ha alone",60%
same,"% control score, Obs","[3]; BRAPL, 250 g/ha alone",80%
same,"% control score, Obs","[3]; DIGSA, 15.625 g/ha alone",1%
same,"% control score, Obs","[3]; DIGSA, 62.5 g/ha alone",30%
same,"% control score, Obs","[3]; DIGSA, 250 g/ha alone",50%
same,"% control score, Obs","[3]; ECHCG, 15.625 g/ha alone",2%
same,"% control score, Obs","[3]; ECHCG, 62.5 g/ha alone",40%
same,"% control score, Obs","[3]; ECHCG, 250 g/ha alone",70%
same,"% control score, Obs","[3]; PANMI, 15.625 g/ha alone",10%
same,"% control score, Obs","[3]; PANMI, 62.5 g/ha alone",65%
same,"% control score, Obs","[3]; PANMI, 250 g/ha alone",70%
same,"% control score, Obs","[3]; SETFA, 15.625 g/ha alone",10%
same,"% control score, Obs","[3]; SETFA, 62.5 g/ha alone",60%
same,"% control score, Obs","[3]; SETFA, 250 g/ha alone",85%
same,"% control score, Obs","[3]; SIDSP, 15.625 g/ha alone",15%
same,"% control score, Obs","[3]; SIDSP, 62.5 g/ha alone",60%
same,"% control score, Obs","[3]; SIDSP, 250 g/ha alone",70%
